Publication PMC12221989, “One-carbon homologation of alkenes” (Nature, 2025)

What was measured:
Jurkat cells = experiment: IL-2 release assay, Jurkat cells stimulated with anti-CD3/anti-CD28; assay type: cell-based, human; conditions: for suppression of IL-2 secretion (in words): at high concentrations (≥1 µM), Jurkat T cells; for IL-2 levels, Mean: mean of three replicates normalized to the vehicle control
Method: Interleukin-2 (IL-2) release assays were conducted by Eurofins Pan Labs to determine ability for the analogues to inhibit IL-2 secretion from Jurkat cells following stimulation with anti-CD3 and anti-CD28 for a period of 24 hours. Data shown are means of three replicates normalized to the vehicle control
1) Cryopreserved Jurkat cells were thawed and cultured according to established protocols for four days at 37°C, 5% CO2 prior to assay.
2) Jurkat cells were harvested and seeded into 96-well plates at a density of 2x10^5 cells/well with […]
penicillin/streptomycin, and 2 mM L-glutamine).
3) Cells were incubated at 37°C, 5% CO2 for 1 hour prior to the addition of test agents.
4) The test agents were serially diluted in DMSO to 1000X assay concentrations, then further diluted to 20X assay concentrations in culture medium. The reference inhibitor Cyclosporin A (Sigma Aldrich catalog #C1832) was diluted to 1000X assay concentrations in DMSO before dilution to 20X assay concentration in culture medium.
5) The test agents, reference inhibitor, and diluted vehicle controls were added to the cells in volumes of 10 μL in triplicate and incubated for 1 hour at 37°C, 5% CO2. […]
concentrations in culture medium. The corresponding isotype controls were diluted to 5X assay concentrations in culture medium.
7) Diluted anti-CD3/anti-CD28 was added to test agent and positive control wells in volumes of 40 μL according to the plate map. Isotype controls were added to the isotype control wells.
Culture medium was added to vehicle and unstimulated control wells. […]
assay volumes of 200 μL and control concentrations of 50 ng/mL cyclosporin A (reference inhibitor), 0.1% DMSO (vehicle), 15 μg/mL anti-CD3, and 15 μg/mL anti-CD28.
8) Cells were incubated for 24 hours at 37°C, 5% CO2.
9) At the end of the incubation period, plates were centrifuged at 200g for 10 minutes. Cell culture supernatants were collected and stored at -80°C until needed for analysis.
Data Analysis and Analyte Limits of Detection
IL-2 cytokine levels in cell culture supernatants were determined using Luminex methodology per the manufacturer’s protocol using the Human Cytokine/Chemokine/Growth Factor Panel A Kit from Millipore Sigma (catalog #HCYTA-60K) with standard ranges and limits of detection in Table S9. Levels of each cytokine were interpolated from standard curves using non-linear regression analysis in Belysa Software (Millipore Sigma). The raw data in the form of median fluorescence unit was interpolated into test concentrations (pg/mL). The interpolated data were then normalized to the vehicle control
Table S9. Analyte limit of detection
Analyte Lowest standard (pg/mL) Highest standard (pg/mL) Sensitivity (pg/mL) […]
Reported mean values (pg/mL) are from three biological replicates normalized to the vehicle […]
Fig. S5. IL-2 release by Jurkat cells following stimulation with anti-CD3/anti-CD28 and treatment with the indicated test agent for 24 hours. Error bars indicate the standard error of the […]

[1] = Reversed-phase HPLC retention as measure of lipophilicity; conditions: reversed-phase C18, Fig. S4-b; corroborates calculated lipophilicity
[2] = tested on: calcineurin in the presence of Cyclophilin A; experiment: Calcineurin inhibition assay (phosphatase activity in the presence of Cyclophilin A); assay type: biochemical; conditions: for IC50: with CypA, calcineurin/calmodulin, RII phosphopeptide substrate, 30 °C 45 min, Malachite green A620, duplicate, IC50 from mean averages
Method: Calcineurin inhibition assay
Calcineurin inhibition assays were conducted by Eurofins Integrated Discovery UK Ltd (EID) to determine the effect of compounds on the activity of calcineurin in the presence of Cyclophilin A. Assays were performed in duplicate, with IC50 values calculated from mean […]
Compounds were diluted with and without immunophilin (CypA) in a 96-well plate. After addition of calcineurin/calmodulin complex, the plate was incubated at 30 °C for 10 minutes.
The addition of the RII phosphopeptide substrate initiated the reaction, and the plate was […]
The reaction was stopped by the addition of Malachite green reagent. The plate was incubated at room temperature to allow colour development (5 – 20 mins). After sufficient colour has developed, the absorbance is read at 620 nm. Blank subtracted absorbance readings are plotted against compound concentration to determine IC50 values or % inhibition at the top concentration.

in vitro = conditions: human
Method: Metabolic stability assay
Hepatic microsomal stability assays were conducted by Charles River Laboratories. Assays were performed in duplicate.
The stability of the test compound (1 µM) was measured following incubation at 37 °C with […] (0.5 mg protein/mL) in the presence of the cofactor, NADPH.
Incubates were prepared in duplicate, with aliquots removed at 0, 5, 10, 20 and 40 minutes and reactions terminated, and the compound was extracted by the addition of solvent. The disappearance of the parent compound was be monitored by LC-MS/MS and the half-life determined over the time-course of incubation. The half-life value was used to calculate the in vitro intrinsic clearance expressed as µL/min/mg protein.
Table S11. Metabolic Stability Data
Half- Half- Half- Clint Clint Mean Clint
Compound Cofactor life life Life (uL/min/mg (uL/min/mg (uL/min/mg Species (min) (min) (min) protn) n=1 protn) n=2 protn) (results)

Human Cyclophilin A = Human Cyclophilin A (Homo sapiens, UniProt P62937); experiment: PPIase TR-FRET competitive binding assay
Sequence of Human Cyclophilin A (P62937 whole entry): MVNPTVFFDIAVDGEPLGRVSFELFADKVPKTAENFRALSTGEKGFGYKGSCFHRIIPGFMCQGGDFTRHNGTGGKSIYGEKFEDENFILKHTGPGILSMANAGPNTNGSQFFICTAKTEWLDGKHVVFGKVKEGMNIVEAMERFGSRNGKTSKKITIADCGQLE
Method: PPIase TR-FRET competitive binding assay
Cyclophilin A assays were conducted by Eurofins Integrated Discovery UK Ltd (EID) to determine the inhibitory activity of the analogues against the Human Cyclophilin A in a TR-FRET Competitive Binding assay. Assays were performed in duplicate, with Kd values calculated from mean averages. […]
binding to the CypA enzyme: the CypA enzyme, tagged with a polyhistidine sequence, forms a complex with an anti-6xHis antibody labelled with a fluorescent donor, F(d), and the enzyme […]
Compounds are diluted from DMSO stocks to 50-fold the final concentration and then in assay buffer to 2-fold the final assay plate concentration. An equal volume of compound is added to the master mix in the assay plate containing the enzyme/antibody/ligand complex, with a final concentration of detergent of 0.01%. This is incubated for 30 mins at room temperature and the plate read at 2 wavelengths (A and B) to detect emission from F(d) and F(a), respectively. The ratio B/A is calculated, blank subtracted and either expressed as a percentage of the ‘no inhibitor’ control or the blank subtracted values are plotted against the inhibitor concentration in Log10 Molar and fitted using one site Ki nonlinear regression to determine the Kd. Where possible, compound Kds are determined from duplicate data points. Each assay plate is set up with ‘no enzyme’ blanks and ‘no inhibitor’ controls, which are used to determine the Z’ value for each plate.

[3] = in vitro calcineurin phosphatase activity assay

increase of HPLC retention time upon each homologation event [1] | decrease in phosphatase activity compared with cyclosporine A [2, 3] [fold] | IC50 [2] [nM] | half-life at 1 µM (in vitro; both, liver microsomes) [min] | Clint (uL/min/mg protn) n=1 (in vitro) [uL/min/mg protn] | Clint (uL/min/mg protn) n=2 (in vitro) [uL/min/mg protn] | Half-life (min) n=1 (in vitro) [min] | Half-life (min) n=2 (in vitro) [min] | Mean Clint (uL/min/mg protn) (in vitro) | Kd (Human Cyclophilin A) [nM] | SMILES | suppression of IL-2 secretion (in words) (Jurkat cells) | IL-2 levels, Mean (Jurkat cells; test agent 0.10 µM) [pg/mL] | IL-2 levels, Mean (Jurkat cells; test agent 0.32 µM) [pg/mL] | IL-2 levels, Mean (Jurkat cells; test agent 1.0 µM) [pg/mL] | IL-2 levels, Mean (Jurkat cells; test agent 3.2 µM) [pg/mL] | IL-2 levels, Mean (Jurkat cells; test agent 10 µM) [pg/mL] | IL-2 levels, Mean (Jurkat cells; test agent 0.032 µM) [pg/mL] | calcineurin inhibition compared with cyclosporine A (in words) [2, 3]
~ 2.5 minutes | 3.5 | 401 | 32 | 40 | 46 | 35 | 30 | 43 | 76.7 | C/C=C/CC[C@@H](C)[C@@H](O)[C@H]1C(=O)N[C@@H](CC)C(=O)N(C)CC(=O)N(C)[C@@H](CC(C)C)C(=O)N[C@@H](C(C)C)C(=O)N(C)[C@@H](CC(C)C)C(=O)N[C@@H](C)C(=O)N[C@H](C)C(=O)N(C)[C@@H](CC(C)C)C(=O)N(C)[C@@H](CC(C)C)C(=O)N(C)[C@@H](C(C)C)C(=O)N1C [compound 21, E-homo Cyclosporine-A] | effectively suppressed IL-2 secretion | 11.7 | 3.5 | 1.6 | 1.1 | 1.0 |  | 
~ 2.5 minutes |  | 158 |  | 81 | 78 | 17 |  | 79 | 23.6 | C/C=C/CCC[C@@H](C)[C@@H](O)[C@H]1C(=O)N[C@@H](CC)C(=O)N(C)CC(=O)N(C)[C@@H](CC(C)C)C(=O)N[C@@H](C(C)C)C(=O)N(C)[C@@H](CC(C)C)C(=O)N[C@@H](C)C(=O)N[C@H](C)C(=O)N(C)[C@@H](CC(C)C)C(=O)N(C)[C@@H](CC(C)C)C(=O)N(C)[C@@H](C(C)C)C(=O)N1C [compound 22, E-bishomo Cyclosporine-A] | effectively suppressed IL-2 secretion | 1.9 | 1.1 | 0.9 | 0.5 | 0.7 | 7.0 | retained comparable potency to cyclosporine A
